Reference: ChEMBL document CHEMBL1135072, “Substituted N-(3,5-dichlorobenzenesulfonyl)-L-prolyl-phenylalanine analogues as potent VLA-4 antagonists” (Bioorg Med Chem Lett, 2002)

Assays:
[1] = biological target: T1, Integrin alpha-4/beta-7 (Homo sapiens) (UniProt P13612+P26010); experiment: Inhibition of MadCAM-Ig binding to alpha-4 beta-7 integrin at 0.1 uM; format: protein-complex assay
Integrin alpha-4/beta-1 = Integrin alpha-4/beta-1 (Homo sapiens, UniProt P05556+P13612); experiment: Inhibitory activity against very late antigen-4 (VLA-4) using VCAM-Ig ligand.; format: protein-complex assay
Integrin alpha-4/beta-1, sequence (P05556 whole entry, one chain of several): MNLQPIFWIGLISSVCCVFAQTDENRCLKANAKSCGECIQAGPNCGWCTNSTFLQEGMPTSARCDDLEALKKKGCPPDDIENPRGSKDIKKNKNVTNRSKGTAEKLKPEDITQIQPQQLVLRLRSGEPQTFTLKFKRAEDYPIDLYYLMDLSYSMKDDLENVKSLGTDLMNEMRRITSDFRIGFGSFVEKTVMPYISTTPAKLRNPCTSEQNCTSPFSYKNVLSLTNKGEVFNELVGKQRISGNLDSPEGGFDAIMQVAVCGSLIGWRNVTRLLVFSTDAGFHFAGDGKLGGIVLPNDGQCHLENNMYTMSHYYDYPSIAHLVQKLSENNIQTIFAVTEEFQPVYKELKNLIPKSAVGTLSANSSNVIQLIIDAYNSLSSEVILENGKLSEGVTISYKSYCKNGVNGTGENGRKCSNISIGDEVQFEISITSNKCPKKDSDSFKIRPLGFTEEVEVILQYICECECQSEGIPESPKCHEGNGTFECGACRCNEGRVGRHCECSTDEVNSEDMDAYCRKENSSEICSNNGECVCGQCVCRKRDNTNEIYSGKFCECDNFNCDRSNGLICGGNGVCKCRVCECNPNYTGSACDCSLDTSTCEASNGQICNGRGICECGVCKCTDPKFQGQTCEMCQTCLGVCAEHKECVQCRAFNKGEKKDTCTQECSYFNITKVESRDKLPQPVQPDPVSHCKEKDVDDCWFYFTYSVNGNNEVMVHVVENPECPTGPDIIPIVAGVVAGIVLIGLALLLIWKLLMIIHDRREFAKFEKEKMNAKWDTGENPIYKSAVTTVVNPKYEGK

in vivo = details: Sprague-Dawley, rat, plasma
[2] = Plasma clearance was reported in Sprague-Dawley rat
[3] = Volume of distribution was reported in Sprague-Dawley rat; details: in vivo
Integrin alpha-4/beta-7 = biological target: T2, Integrin alpha-4/beta-7 (Homo sapiens, UniProt P13612+P26010); experiment: Inhibition of MadCAM-Ig binding to alpha-4 beta-7 integrin; format: protein-complex assay
T2 sequence (P13612 whole entry): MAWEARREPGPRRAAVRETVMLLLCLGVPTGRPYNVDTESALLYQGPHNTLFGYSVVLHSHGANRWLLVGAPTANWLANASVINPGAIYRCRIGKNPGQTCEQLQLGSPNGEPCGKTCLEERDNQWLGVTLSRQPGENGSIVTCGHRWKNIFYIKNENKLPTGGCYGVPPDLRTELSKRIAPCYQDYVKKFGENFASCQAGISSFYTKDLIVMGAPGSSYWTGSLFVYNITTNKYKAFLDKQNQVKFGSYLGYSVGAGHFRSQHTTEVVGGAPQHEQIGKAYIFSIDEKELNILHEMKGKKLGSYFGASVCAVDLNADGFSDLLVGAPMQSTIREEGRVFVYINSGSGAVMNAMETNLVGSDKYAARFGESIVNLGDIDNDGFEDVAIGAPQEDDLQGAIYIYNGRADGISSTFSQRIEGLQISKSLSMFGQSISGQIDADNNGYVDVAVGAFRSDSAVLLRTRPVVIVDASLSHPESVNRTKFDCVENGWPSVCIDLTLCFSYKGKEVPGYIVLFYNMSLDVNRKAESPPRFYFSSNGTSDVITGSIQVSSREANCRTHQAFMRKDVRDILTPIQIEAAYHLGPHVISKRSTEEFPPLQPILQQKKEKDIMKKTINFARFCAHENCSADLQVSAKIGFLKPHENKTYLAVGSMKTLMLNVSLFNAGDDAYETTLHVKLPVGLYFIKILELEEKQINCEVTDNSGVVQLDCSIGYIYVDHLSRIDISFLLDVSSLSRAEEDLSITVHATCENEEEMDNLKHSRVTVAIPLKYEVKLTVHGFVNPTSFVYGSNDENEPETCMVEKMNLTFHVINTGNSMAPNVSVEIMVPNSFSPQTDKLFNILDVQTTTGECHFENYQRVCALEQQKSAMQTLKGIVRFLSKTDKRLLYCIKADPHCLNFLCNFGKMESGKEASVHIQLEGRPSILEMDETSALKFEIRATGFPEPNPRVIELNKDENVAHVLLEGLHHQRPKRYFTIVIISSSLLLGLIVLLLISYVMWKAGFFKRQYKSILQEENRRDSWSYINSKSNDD
T2 sequence (P26010 whole entry): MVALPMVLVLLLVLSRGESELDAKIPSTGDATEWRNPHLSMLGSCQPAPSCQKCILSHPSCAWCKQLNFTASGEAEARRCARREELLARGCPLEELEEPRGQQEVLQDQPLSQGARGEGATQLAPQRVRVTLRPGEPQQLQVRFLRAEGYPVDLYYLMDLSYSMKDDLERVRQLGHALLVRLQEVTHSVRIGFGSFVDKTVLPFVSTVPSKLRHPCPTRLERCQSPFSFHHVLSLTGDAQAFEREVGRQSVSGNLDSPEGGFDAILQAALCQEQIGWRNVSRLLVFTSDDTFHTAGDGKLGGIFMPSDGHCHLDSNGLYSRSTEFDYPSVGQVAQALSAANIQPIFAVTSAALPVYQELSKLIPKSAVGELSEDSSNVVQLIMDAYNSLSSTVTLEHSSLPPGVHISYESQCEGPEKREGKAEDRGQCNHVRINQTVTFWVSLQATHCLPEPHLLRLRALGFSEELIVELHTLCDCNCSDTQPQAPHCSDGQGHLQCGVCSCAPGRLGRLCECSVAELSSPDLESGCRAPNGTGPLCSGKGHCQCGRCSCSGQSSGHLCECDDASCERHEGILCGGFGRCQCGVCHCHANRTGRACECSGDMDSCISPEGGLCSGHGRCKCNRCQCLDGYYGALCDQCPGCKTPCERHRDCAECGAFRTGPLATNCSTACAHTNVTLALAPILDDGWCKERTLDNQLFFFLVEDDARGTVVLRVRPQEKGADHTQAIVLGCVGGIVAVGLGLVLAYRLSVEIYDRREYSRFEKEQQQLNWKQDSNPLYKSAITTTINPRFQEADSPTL

Rattus norvegicus = species: Rattus norvegicus; experiment: The plasma concentration versus time curve (AUC) was determined; details: in vivo
[4] = biological target: T1, Integrin alpha-4/beta-7 (Homo sapiens); experiment: Inhibition of MadCAM-Ig binding to alpha-4 beta-7 integrin at 20 uM; format: protein-complex assay

Row | Compound | IC50 (Integrin alpha-4/beta-1) [nM] | other results
1 | C[C@@]1(C(=O)N[C@@H](Cc2ccc(C#N)cc2)C(=O)O)CCCN1S(=O)(=O)c1cc(Cl)cc(Cl)c1 | 1.6 | inhibition [1]: 29%
2 | CCc1ccc(C[C@H](NC(=O)[C@@H]2CCCN2S(=O)(=O)c2cc(Cl)cc(Cl)c2)C(=O)O)cc1 | 0.44 | –
3 | C[C@@]1(C(=O)N[C@@H](Cc2ccc(OC(F)(F)F)cc2)C(=O)O)CCCN1S(=O)(=O)c1cc(Cl)cc(Cl)c1 | 3.8 | half-life (in vivo): 54 min; clearance [2]: 36 mL/min/kg; Vd [3]: 1.4 L/kg
4 | C[C@@]1(C(=O)N[C@H](Cc2ccccc2)C(=O)O)CCCN1S(=O)(=O)c1cc(Cl)cc(Cl)c1 | 152 | –
5 | O=C(O)[C@H](Cc1ccccn1)NC(=O)[C@@H]1CCCN1S(=O)(=O)c1cc(Cl)cc(Cl)c1 | 26.5 | –
6 | O=C(O)[C@H](Cc1ccc(OC(F)(F)F)cc1)NC(=O)[C@@H]1CCCN1S(=O)(=O)c1cc(Cl)cc(Cl)c1 | 0.86 | –
7 | O=C(O)[C@H](Cc1ccc(F)c(F)c1)NC(=O)[C@@H]1CCCN1S(=O)(=O)c1cc(Cl)cc(Cl)c1 | 0.48 | –
8 | O=C(O)[C@H](Cc1ccccc1Cl)NC(=O)[C@@H]1CCCN1S(=O)(=O)c1cc(Cl)cc(Cl)c1 | 0.99 | –
9 | O=C(O)[C@H](Cc1cccc(F)c1)NC(=O)[C@@H]1CCCN1S(=O)(=O)c1cc(Cl)cc(Cl)c1 | 0.67 | –
10 | C[C@]1(C(=O)N[C@@H](Cc2ccccc2)C(=O)O)CCCN1S(=O)(=O)c1cc(Cl)cc(Cl)c1 | 2060 | –
11 | O=C(O)[C@H](Cc1ccc(Cl)cc1)NC(=O)[C@@H]1CCCN1S(=O)(=O)c1cc(Cl)cc(Cl)c1 | 0.85 | –
12 | N#Cc1ccc(C[C@H](NC(=O)[C@@H]2CCCN2S(=O)(=O)c2cc(Cl)cc(Cl)c2)C(=O)O)cc1 | 0.79 | –
13 | C[C@@]1(C(=O)N[C@@H](Cc2ccncc2)C(=O)O)CCCN1S(=O)(=O)c1cc(Cl)cc(Cl)c1 | 1.31 | inhibition [1]: 13%
14 | O=C(O)[C@H](Cc1cc(F)cc(F)c1)NC(=O)[C@@H]1CCCN1S(=O)(=O)c1cc(Cl)cc(Cl)c1 | 1.1 | –
15 | O=C(O)[C@H](Cc1ccc(F)cc1)NC(=O)[C@@H]1CCCN1S(=O)(=O)c1cc(Cl)cc(Cl)c1 | 0.48 | –
16 | C[C@@]1(C(=O)N[C@@H](Cc2ccc(O)cc2)C(=O)O)CCCN1S(=O)(=O)c1cc(Cl)cc(Cl)c1 | 0.86 | –
17 | O=C(O)[C@H](Cc1ccccc1F)NC(=O)[C@@H]1CCCN1S(=O)(=O)c1cc(Cl)cc(Cl)c1 | 1.3 | –

Further lines, with some results ahead:

Row | IC50 (Integrin alpha-4/beta-1) [nM] | Compound | other results
18 | 0.65 | O=C(O)[C@H](Cc1ccc(-c2ccccc2)cc1)NC(=O)[C@@H]1CCCN1S(=O)(=O)c1cc(Cl)cc(Cl)c1 | –
19 | 28400 | C[C@]1(C(=O)N[C@H](Cc2ccccc2)C(=O)O)CCCN1S(=O)(=O)c1cc(Cl)cc(Cl)c1 | –
20 | 0.92 | O=C(O)[C@H](Cc1ccc(Br)cc1)NC(=O)[C@@H]1CCCN1S(=O)(=O)c1cc(Cl)cc(Cl)c1 | –
21 | 1.88 | CCc1ccc(C[C@H](NC(=O)[C@]2(C)CCCN2S(=O)(=O)c2cc(Cl)cc(Cl)c2)C(=O)O)cc1 | inhibition [1]: 2%
22 | 3.9 | C[C@@]1(C(=O)N[C@@H](Cc2ccc(C(F)(F)F)cc2)C(=O)O)CCCN1S(=O)(=O)c1cc(Cl)cc(Cl)c1 | inhibition [1]: 25%
23 | 0.33 | O=C(O)[C@H](Cc1ccc(I)cc1)NC(=O)[C@@H]1CCCN1S(=O)(=O)c1cc(Cl)cc(Cl)c1 | –
24 | 1 | C[C@@]1(C(=O)N[C@@H](Cc2ccccc2)C(=O)O)CCCN1S(=O)(=O)c1cc(Cl)cc(Cl)c1 | IC50 (Integrin alpha-4/beta-7): 3550 nM
25 | 3.2 | O=C(O)[C@H](Cc1cccc(C(F)(F)F)c1)NC(=O)[C@@H]1CCCN1S(=O)(=O)c1cc(Cl)cc(Cl)c1 | –
26 | 2.3 | C[C@@]1(C(=O)N[C@@H](Cc2ccc(Cl)cc2)C(=O)O)CCCN1S(=O)(=O)c1cc(Cl)cc(Cl)c1 | inhibition [1]: < 16%
27 | 1.2 | C[C@@]1(C(=O)N[C@@H](Cc2ccc(F)cc2)C(=O)O)CCCN1S(=O)(=O)c1cc(Cl)cc(Cl)c1 | inhibition [1]: < 5%; half-life (in vivo): 72 min; clearance [2]: 44 mL/min/kg; plasma concentration (Rattus norvegicus): ~ 1 nM; Vd [3]: 1.2 L/kg
28 | 0.9 | C[C@@]1(C(=O)N[C@@H](Cc2cccc(F)c2)C(=O)O)CCCN1S(=O)(=O)c1cc(Cl)cc(Cl)c1 | inhibition [1]: < 5%
29 | 1.8 | C[C@@]1(C(=O)N[C@@H](Cc2ccccc2Cl)C(=O)O)CCCN1S(=O)(=O)c1cc(Cl)cc(Cl)c1 | inhibition [1]: < 16%
30 | 0.3 | O=C(O)[C@H](Cc1ccc([N+](=O)[O-])cc1)NC(=O)[C@@H]1CCCN1S(=O)(=O)c1cc(Cl)cc(Cl)c1 | –
31 | 0.67 | O=C(O)[C@H](Cc1ccncc1)NC(=O)[C@@H]1CCCN1S(=O)(=O)c1cc(Cl)cc(Cl)c1 | inhibition [4]: 45%
32 | 1.7 | C[C@@]1(C(=O)N[C@@H](Cc2ccccc2F)C(=O)O)CCCN1S(=O)(=O)c1cc(Cl)cc(Cl)c1 | inhibition [1]: < 5%
33 | 4.77 | C[C@@]1(C(=O)N[C@@H](Cc2ccc(I)cc2)C(=O)O)CCCN1S(=O)(=O)c1cc(Cl)cc(Cl)c1 | inhibition [4]: 58%
34 | 1.61 | C[C@@]1(C(=O)N[C@@H](Cc2cccs2)C(=O)O)CCCN1S(=O)(=O)c1cc(Cl)cc(Cl)c1 | inhibition [4]: 45%
35 | 0.59 | COc1ccc(C[C@H](NC(=O)[C@]2(C)CCCN2S(=O)(=O)c2cc(Cl)cc(Cl)c2)C(=O)O)cc1 | inhibition [1]: 16%; half-life (in vivo): 36 min; clearance [2]: 47 mL/min/kg; Vd [3]: 1.4 L/kg
36 | 3.6 | O=C(O)[C@H](Cc1cccc(Cl)c1)NC(=O)[C@@H]1CCCN1S(=O)(=O)c1cc(Cl)cc(Cl)c1 | –
37 | 0.73 | O=C(O)[C@H](Cc1cscn1)NC(=O)[C@@H]1CCCN1S(=O)(=O)c1cc(Cl)cc(Cl)c1 | IC50 (Integrin alpha-4/beta-7): 2350 nM
38 | 1.7 | C[C@@]1(C(=O)N[C@@H](Cc2cccc(Cl)c2)C(=O)O)CCCN1S(=O)(=O)c1cc(Cl)cc(Cl)c1 | inhibition [1]: < 16%
39 | 0.86 | O=C(O)[C@H](Cc1cccnc1)NC(=O)[C@@H]1CCCN1S(=O)(=O)c1cc(Cl)cc(Cl)c1 | IC50 (Integrin alpha-4/beta-7): 2100 nM
40 | 0.92 | O=C(O)[C@H](Cc1cccs1)NC(=O)[C@@H]1CCCN1S(=O)(=O)c1cc(Cl)cc(Cl)c1 | IC50 (Integrin alpha-4/beta-7): 2850 nM
41 | 0.22 | CC(C)(C)Oc1ccc(C[C@H](NC(=O)[C@@H]2CCCN2S(=O)(=O)c2cc(Cl)cc(Cl)c2)C(=O)O)cc1 | –
